In US20240316047A1, “INHIBITORS OF RNA HELICASE DHX9 AND USES THEREOF” (ACCENT THERAPEUTICS, INC., priority 2022, published 2024):
One block for each compound: values may come before it.

Molecular target: Human recombinant DHX9 protein (Homo sapiens (Human), UniProt Q08211)
Assay: DHX9 ATPase assay (ADP-Glo)
Assay type: biochemical
Conditions: for IC50: read-out: DHX9 Biochemical Inflection Point

Human recombinant DHX9 protein, sequence (Q08211 whole entry): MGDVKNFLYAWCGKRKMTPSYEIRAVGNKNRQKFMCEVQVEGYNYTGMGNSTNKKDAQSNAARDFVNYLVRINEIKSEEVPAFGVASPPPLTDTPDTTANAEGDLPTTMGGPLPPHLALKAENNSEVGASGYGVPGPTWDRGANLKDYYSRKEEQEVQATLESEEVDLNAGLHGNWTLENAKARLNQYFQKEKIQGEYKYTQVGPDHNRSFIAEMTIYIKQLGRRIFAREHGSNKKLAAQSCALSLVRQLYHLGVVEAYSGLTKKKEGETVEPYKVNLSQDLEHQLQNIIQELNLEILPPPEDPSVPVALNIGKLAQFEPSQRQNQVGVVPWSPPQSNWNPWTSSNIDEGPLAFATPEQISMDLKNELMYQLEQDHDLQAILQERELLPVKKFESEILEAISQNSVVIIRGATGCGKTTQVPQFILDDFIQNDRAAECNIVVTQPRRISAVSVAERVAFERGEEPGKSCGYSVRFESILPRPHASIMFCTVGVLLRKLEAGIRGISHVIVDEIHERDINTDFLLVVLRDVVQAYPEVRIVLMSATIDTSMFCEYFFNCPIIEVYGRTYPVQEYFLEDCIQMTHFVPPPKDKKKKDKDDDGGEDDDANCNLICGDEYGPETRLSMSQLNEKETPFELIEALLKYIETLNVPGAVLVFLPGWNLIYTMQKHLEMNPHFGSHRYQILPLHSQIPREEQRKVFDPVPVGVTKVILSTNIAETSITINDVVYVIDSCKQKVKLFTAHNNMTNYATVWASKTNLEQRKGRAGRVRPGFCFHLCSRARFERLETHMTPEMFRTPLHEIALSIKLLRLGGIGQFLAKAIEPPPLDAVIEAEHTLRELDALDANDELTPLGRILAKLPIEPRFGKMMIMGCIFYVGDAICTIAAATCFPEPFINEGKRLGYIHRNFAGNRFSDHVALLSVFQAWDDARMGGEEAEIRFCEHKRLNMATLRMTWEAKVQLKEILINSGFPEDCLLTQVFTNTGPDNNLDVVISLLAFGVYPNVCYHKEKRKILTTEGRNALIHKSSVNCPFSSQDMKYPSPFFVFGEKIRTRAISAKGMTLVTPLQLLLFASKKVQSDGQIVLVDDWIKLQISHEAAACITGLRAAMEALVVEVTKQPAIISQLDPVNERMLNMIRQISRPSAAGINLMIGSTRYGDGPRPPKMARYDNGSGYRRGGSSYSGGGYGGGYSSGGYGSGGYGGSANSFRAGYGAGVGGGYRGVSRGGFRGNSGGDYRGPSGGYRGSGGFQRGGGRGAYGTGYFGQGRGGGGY

DHX9 Biochemical Max Inhibition: 57.8%
IC50: 0.194 µM
Compound: Cc1ccc2sc(C(=O)Nc3cc(Cl)cc(NS(C)(=O)=O)c3)cc2c1 [Example 331]

DHX9 Biochemical Max Inhibition: 61.5%
IC50: 4.83 µM
Compound: CS(=O)(=O)Nc1cc(Cl)cc(NC(=O)c2cc3c(Cl)cccc3s2)c1 [Example 332]

DHX9 Biochemical Max Inhibition: 81.5%
IC50: 0.0109 µM
Compound: Cc1cccnc1-c1csc(C(=O)Nc2cc(F)cc(NS(C)(=O)=O)c2)c1 [Example 334]

DHX9 Biochemical Max Inhibition: 84%
IC50: 0.0096 µM
Compound: Cc1sc(C(=O)Nc2cc(Cl)cc(NS(C)(=O)=O)c2)cc1-c1ncc(F)cn1 [Example 336]

DHX9 Biochemical Max Inhibition: 78%
IC50: 0.0157 µM
Compound: CS(=O)(=O)Nc1cc(Cl)cc(NC(=O)c2cc(-c3ncc(F)cn3)cs2)c1 [Example 338]

DHX9 Biochemical Max Inhibition: 71%
IC50: 0.0107 µM
Compound: CCOc1ccc(-c2csc(C(=O)Nc3cc(Cl)cc(NS(C)(=O)=O)c3)c2)nc1 [Example 339]

DHX9 Biochemical Max Inhibition: 83.05%
IC50: 0.0062 µM
Compound: COc1cnc(-c2cc(C(=O)Nc3cc(Cl)cc(NS(C)(=O)=O)c3)sc2C)nc1 [Example 341]

DHX9 Biochemical Max Inhibition: 73.6%
IC50: 0.0331 µM
Compound: CCOc1cnc(-c2csc(C(=O)Nc3cc(Cl)cc(NS(C)(=O)=O)c3)c2)nc1 [Example 342]

DHX9 Biochemical Max Inhibition: 77.1%
IC50: 0.0336 µM
Compound: Cc1sc(C(=O)Nc2cc(Cl)cc(NS(C)(=O)=O)c2)cc1-c1ncc(OC(F)F)cn1 [Example 345]

DHX9 Biochemical Max Inhibition: 67.1%
Compound: CCS(=O)(=O)Nc1cc(Cl)cc(NC(=O)c2cc(-c3ncc(F)cc3C)c(C)s2)c1 [Example 350]

The next lines start with the compound.

Compound: Cc1cccnc1-c1cc(C(=O)Nc2cc(F)cc(NS(C)(=O)=O)c2)sc1C [Example 333]
DHX9 Biochemical Max Inhibition: 78.1%
IC50: 0.0351 µM

Compound: CCOc1cnc(-c2cc(C(=O)Nc3cc(Cl)cc(NS(C)(=O)=O)c3)sc2C)nc1 [Example 335]
DHX9 Biochemical Max Inhibition: 79%
IC50: 0.0107 µM

Compound: COc1cnc(-c2csc(C(=O)Nc3cc(Cl)cc(NS(C)(=O)=O)c3)c2)nc1 [Example 340]
DHX9 Biochemical Max Inhibition: 65.6%

Compound: CCS(=O)(=O)Nc1cc(Cl)cc(NC(=O)c2cc(-c3ncc(F)cn3)cs2)c1 [Example 343]
DHX9 Biochemical Max Inhibition: 54.4%
IC50: 0.0552 µM

Compound: CCS(=O)(=O)Nc1cc(Cl)cc(NC(=O)c2cc(-c3ncc(F)cn3)c(C)s2)c1 [Example 344]
DHX9 Biochemical Max Inhibition: 74.1%
IC50: 0.021 µM

Compound: CCS(=O)(=O)Nc1cc(Cl)cc(NC(=O)c2cc(-c3ccc(F)cn3)c(C)s2)c1 [Example 346]
DHX9 Biochemical Max Inhibition: 73%
IC50: 0.0257 µM

Compound: CCS(=O)(=O)Nc1cc(Cl)cc(NC(=O)c2cc(-c3ncc(F)cc3F)c(C)s2)c1 [Example 347]
DHX9 Biochemical Max Inhibition: 72.1%
IC50: 0.034 µM

Compound: Cc1cc(F)cnc1-c1cc(C(=O)Nc2cc(Cl)cc(NS(C)(=O)=O)c2)sc1C [Example 348]
DHX9 Biochemical Max Inhibition: 74.6%
IC50: 0.0318 µM

Compound: Cc1sc(C(=O)Nc2cc(Cl)cc(NS(C)(=O)=O)c2)cc1-c1ncc(F)cc1F [Example 349]
DHX9 Biochemical Max Inhibition: 76.4%
IC50: 0.0237 µM

Compound: COc1cc(F)cnc1-c1cc(C(=O)Nc2cc(Cl)cc(NS(C)(=O)=O)c2)sc1C [Example 351]
DHX9 Biochemical Max Inhibition: 80.6%
IC50: 0.0155 µM

Compound: COc1ccc(-c2cc(C(=O)Nc3cc(Cl)cc(NS(C)(=O)=O)c3)sc2C)nc1 [Example 352]
DHX9 Biochemical Max Inhibition: 84.1%

Compound: CCS(=O)(=O)Nc1cc(Cl)cc(NC(=O)c2cc(-c3ncc(OC)cn3)c(C)s2)c1 [Example 353]
DHX9 Biochemical Max Inhibition: 69.2%
IC50: 0.0242 µM
